From ChEMBL document CHEMBL1201862, “PubChem BioAssay data set” (2004)
Blank lines part the entries; values can stand above or below the compound they belong to. Activity calls are given as the source filed them.

How the values were obtained:
[1] = molecular target: T1, Oxysterols receptor LXR-beta (Homo sapiens, UniProt P55055); experiment: LXR agonists, Gal4 luciferase reporter, dose response, counter-screen for ssDAF-12 agonist project, cell-based, luminescence, HEK293, S. stercoralis campaign (AID 720737); type: functional; details: read-out: IC50 (the source's name)
T1 sequence (P55055 whole entry): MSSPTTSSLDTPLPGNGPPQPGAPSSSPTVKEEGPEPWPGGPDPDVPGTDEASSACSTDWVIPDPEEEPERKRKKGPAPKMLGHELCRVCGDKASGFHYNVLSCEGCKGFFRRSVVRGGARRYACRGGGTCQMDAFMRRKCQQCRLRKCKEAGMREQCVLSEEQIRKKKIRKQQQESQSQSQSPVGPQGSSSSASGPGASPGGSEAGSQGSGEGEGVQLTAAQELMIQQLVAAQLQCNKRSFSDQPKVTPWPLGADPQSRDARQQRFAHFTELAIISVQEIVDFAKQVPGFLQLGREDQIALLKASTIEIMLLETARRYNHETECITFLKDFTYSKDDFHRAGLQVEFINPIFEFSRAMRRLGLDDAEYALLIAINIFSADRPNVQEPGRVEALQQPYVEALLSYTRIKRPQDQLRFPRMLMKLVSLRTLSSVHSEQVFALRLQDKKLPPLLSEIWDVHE

[2] = Luminescence-based cell-based high throughput dose response assay to identify activators of the DAF-12 from the parasite S. stercoralis (ssDAF-12).; type: functional
[3] = human group III sPLA2 inhibitors, dose response, biochemical, QFRET, IC50 (AID 743457);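 note: green fluorescence rise as the enzyme cleaves BODIPY PC-A2 in liposomes; potency for inhibition of the enzyme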
[4] = molecular target: T2, Ubiquitin-conjugating enzyme E2 N (Homo sapiens, UniProt P61088); type: functional;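 note: Dose-response confirmation in a TR-FRET assay detecting UBC13-driven polyubiquitin chain formation, inhibition measured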
T2 sequence (P61088 whole entry): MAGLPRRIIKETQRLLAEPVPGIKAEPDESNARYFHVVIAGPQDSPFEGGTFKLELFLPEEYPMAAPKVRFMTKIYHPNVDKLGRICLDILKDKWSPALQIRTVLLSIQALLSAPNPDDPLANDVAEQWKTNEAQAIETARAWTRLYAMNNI

[5] = molecular target: Intestinal-type alkaline phosphatase (Homo sapiens, UniProt P09923); experiment: human intestinal alkaline phosphatase activators, dose response, biochemical, luminescence, uHTS hits (AID 463120); type: functional
[6] = Jurkat T cell cytotoxicity, dose response, cytotoxicity control for P. falciparum gametocyte viability project, luminescence (AID 1117277); type: functional, cell-based;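 note: potency reflects loss of cellular ATP meaning fewer viable cells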
[7] = P. falciparum late gametocyte killing, dose response, luminescence (AID 1117278); type: functional, cell-based;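 note: gametocytes exposed to compound for 24 hours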
[8] = tested on: INS1; experiment: beta cell apoptosis inhibitors, cytokine rescue, dose response, luminescence, retest (AID 449756); type: functional, cell-based; details: Rattus norvegicus;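 note: cell death triggered by IL-1 beta plus TNF-alpha plus IFN-gamma mixture; protective hits raise ATP signal compared with cytokine alone wells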
[9] = cytotoxicity in MIN6 insulinoma cells, dose response, cytotoxicity control, cell-based, mouse insulinoma (AID 2122); type: functional;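 note: confirmatory high-throughput counterscreen run to flag cytotoxic compounds; mouse MIN-6 beta cells carrying an insulin promoter eGFP reporter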
[10] = control 3'UTR Renilla luciferase suppression, dose response, counter-screen for Shn3 inhibitor project, cell-based, Clone20-Shn3RL, cherry-picked (AID 624133); type: functional
[11] = insulin promoter down-regulators in MIN6 cells, imaging, high-content screening, mouse beta cells (AID 1628); type: functional
[12] = HepG2 cell cytotoxicity, dose response, cytotoxicity control for Shn3 inhibitor project, CellTiter-Glo, cherry-picked (AID 624134); type: functional, cell-based
[13] = Shn3 3'UTR reporter inhibitors, dose response, cell-based, Clone20 osteoblasts, firefly luciferase, cherry-picked (AID 624132); type: functional;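 note: firefly luciferase luminescence from reporter carrying the Shn3 3'UTR in osteoblasts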
[14] = reduction of Shn3 3'UTR firefly luciferase signal, dose response, Schnurri-3 inhibitor project, cell-based, Clone20 osteoblasts, cherry-pick, set 2 (AID 720490); type: functional;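 note: actives lower the luminescence signal as inhibitors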
[15] = molecular target: Kallikrein-7 (Homo sapiens, UniProt P49862); experiment: Fluorescence Intensity-based biochemical primary high throughput dose response assay to identify activators of kallikrein-7 (K7) zymogen.
[16] = molecular target: Transthyretin (Homo sapiens, UniProt P02766); experiment: Luminescence-based cell-based high throughput dose response assay to identify activators of Transthyretin (TTR) transcription.; type: functional
[17] = molecular target: NAD-dependent protein deacylase sirtuin-5, mitochondrial (Homo sapiens, UniProt Q9NXA8); experiment: SIRT5 desuccinylase inhibitors, dose response, biochemical, fluorescence imaging, cherry-pick, set 5 (AID 720591);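 note: desuccinylation of succinyl peptide AMC substrate read as fluorescence after trypsin release; potency of inhibitors that lower fluorescence and may act on trypsin instead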
[18] = molecular target: T3, Polyadenylate-binding protein 1 (Homo sapiens, UniProt P11940); experiment: PABP1 MLLE–PAM2 interaction inhibitors, dose response, miRNA deadenylation inhibitor project, biochemical, fluorescence polarization, Cy5-PAM2 peptide, secondary (AID 602260); type: functional; details: read-out: IC50_Mean
[19] = molecular target: Caspase-7 (Homo sapiens, UniProt P55210); experiment: human caspase-7 inhibitors, dose response, selectivity assay for caspase-6 inhibitor project, biochemical, DEVD-R110 fluorescence, cherry-pick (AID 743295)
[20] = molecular target: T3, Polyadenylate-binding protein 1; experiment: PABP1 MLLE–PAM2 binding inhibitor potency, dose response, biochemical, fluorescence polarization, FITC-PAM2 peptide (AID 602259); type: functional; details: read-out: IC50_Mean
[21] = molecular target: Tyrosyl-DNA phosphodiesterase 2 (Homo sapiens, UniProt O95551); experiment: human TDP2 enzyme inhibitors, dose response, biochemical, epi absorbance, IC50 (AID 743297)
[22] = molecular target: T4, Caspase-3 (Homo sapiens, UniProt P42574); experiment: caspase-3 enzyme inhibitors, selectivity check, dose response, selectivity assay for caspase-6 allosteric inhibitor project, biochemical, fluorescence, cherry-picked samples (AID 743291)
T4 sequence (P42574 whole entry): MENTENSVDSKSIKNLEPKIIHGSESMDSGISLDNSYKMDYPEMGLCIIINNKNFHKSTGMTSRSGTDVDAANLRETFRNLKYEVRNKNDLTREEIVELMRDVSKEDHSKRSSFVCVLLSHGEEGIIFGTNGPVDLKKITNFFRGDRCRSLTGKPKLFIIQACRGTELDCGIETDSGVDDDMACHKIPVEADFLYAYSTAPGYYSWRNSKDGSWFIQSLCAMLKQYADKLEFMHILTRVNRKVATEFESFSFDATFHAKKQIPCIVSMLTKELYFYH

[23] = molecular target: Caspase-8 (Homo sapiens, UniProt Q14790); experiment: caspase-8 inhibition counter-screen, dose response, selectivity assay for caspase-6 inhibitor project, biochemical, Z-IETD-R110 fluorescence, cherry-picked samples (AID 743294)
[24] = molecular target: Caspase-9 (Homo sapiens, UniProt P55211); experiment: caspase-9 enzyme inhibition, dose response, selectivity assay for caspase-6 inhibitor project, biochemical, fluorescence, plate reader, cherry-picked samples (AID 743293)
[25] = molecular target: Caspase-6 (Homo sapiens, UniProt P55212); experiment: human caspase-6 inhibitors, dose response, biochemical, VEID-R110 fluorescence, cherry-pick (AID 720632)
[26] = molecular target: T5, Protein skinhead-1 (Caenorhabditis elegans, UniProt P34707); type: functional
T5 sequence (P34707 whole entry): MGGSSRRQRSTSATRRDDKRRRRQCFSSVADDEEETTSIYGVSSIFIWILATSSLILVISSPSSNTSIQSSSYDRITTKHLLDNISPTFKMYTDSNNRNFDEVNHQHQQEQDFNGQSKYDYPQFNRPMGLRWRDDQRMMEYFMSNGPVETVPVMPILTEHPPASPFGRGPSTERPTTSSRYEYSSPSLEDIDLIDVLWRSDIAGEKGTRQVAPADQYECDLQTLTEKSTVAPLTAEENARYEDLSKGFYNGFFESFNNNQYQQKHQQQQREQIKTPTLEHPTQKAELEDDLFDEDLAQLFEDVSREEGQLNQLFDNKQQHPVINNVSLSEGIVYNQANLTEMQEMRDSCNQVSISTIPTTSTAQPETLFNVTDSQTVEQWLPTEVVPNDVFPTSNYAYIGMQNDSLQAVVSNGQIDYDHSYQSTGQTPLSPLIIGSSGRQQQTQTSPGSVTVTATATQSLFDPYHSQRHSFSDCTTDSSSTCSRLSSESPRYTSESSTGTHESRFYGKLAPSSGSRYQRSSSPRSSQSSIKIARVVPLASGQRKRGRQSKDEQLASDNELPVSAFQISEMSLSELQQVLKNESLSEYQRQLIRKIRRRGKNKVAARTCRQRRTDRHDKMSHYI

[27] = inhibitors of PGC1a acetylation in cells, dose response, cell-based, cherry-picked samples (AID 720514); type: functional;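 note: potency may reflect raised or lowered acetylation signal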
[28] = cytotoxicity in OVCAR8 ovarian cancer cells, dose response, PAX8 project, cell-based, plate reader, dry powder samples (AID 743197); type: functional; details: OVCAR-8
[29] = molecular target: Paired box protein Pax-8 (Homo sapiens, UniProt Q06710); experiment: inhibitors of PAX8-driven TPO luciferase reporter, dose response, RMG-I cells, cherry-pick (AID 687027); type: functional, cell-based;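 note: luciferase reporter driven by Pax8 target thyroperoxidase promoter measured by SteadyGlo luminescence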
[30] = P. falciparum Dd2 growth inhibitors, dose response, SYBR Green, cherry-picked samples (AID 1159567); type: functional, cell-based
[31] = HepG2 cell cytotoxicity, dose response, cytotoxicity control, cherry-picked samples (AID 1159577); type: functional, cell-based
[32] = IGROV1 ovarian cancer cell cytotoxicity, dose response, PAX8 inhibitor project, plate reader, dry powder samples (AID 743043); type: functional, cell-based; details: IGROV-1
[33] = non-specific cell cytotoxicity, dose response, cytotoxicity control for PAX8 inhibitor project, plate reader, dry powder samples (AID 743021); type: functional, cell-based

T3 sequence (P11940 whole entry): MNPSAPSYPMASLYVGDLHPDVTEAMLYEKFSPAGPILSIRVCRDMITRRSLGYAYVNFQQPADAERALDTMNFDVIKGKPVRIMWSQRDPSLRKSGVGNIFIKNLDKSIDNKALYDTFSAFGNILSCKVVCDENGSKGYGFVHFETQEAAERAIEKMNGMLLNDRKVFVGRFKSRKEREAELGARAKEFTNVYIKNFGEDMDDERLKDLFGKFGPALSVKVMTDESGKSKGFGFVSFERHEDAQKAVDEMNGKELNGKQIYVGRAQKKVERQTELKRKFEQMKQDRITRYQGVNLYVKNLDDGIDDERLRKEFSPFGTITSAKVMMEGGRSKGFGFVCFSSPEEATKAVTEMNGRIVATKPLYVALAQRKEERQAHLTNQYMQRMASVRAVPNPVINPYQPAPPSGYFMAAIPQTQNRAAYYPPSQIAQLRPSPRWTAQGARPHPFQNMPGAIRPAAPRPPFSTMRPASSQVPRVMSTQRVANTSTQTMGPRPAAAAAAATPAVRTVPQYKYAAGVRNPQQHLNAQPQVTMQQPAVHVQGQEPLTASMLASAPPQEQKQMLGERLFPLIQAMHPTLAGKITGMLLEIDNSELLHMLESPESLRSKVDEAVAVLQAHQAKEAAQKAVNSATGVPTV
Chain of Tyrosyl-DNA phosphodiesterase 2 (O95551 whole entry): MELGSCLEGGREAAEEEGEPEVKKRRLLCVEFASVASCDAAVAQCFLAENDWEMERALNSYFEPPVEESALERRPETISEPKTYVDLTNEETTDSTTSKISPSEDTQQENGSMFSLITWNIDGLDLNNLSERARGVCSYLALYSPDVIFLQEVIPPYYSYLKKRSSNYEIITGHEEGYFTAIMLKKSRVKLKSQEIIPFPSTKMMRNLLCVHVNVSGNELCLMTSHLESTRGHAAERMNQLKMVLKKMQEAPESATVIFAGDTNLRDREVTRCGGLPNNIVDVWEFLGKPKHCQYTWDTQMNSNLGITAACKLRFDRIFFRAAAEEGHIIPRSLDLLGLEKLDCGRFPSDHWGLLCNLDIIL
Chain of Intestinal-type alkaline phosphatase (P09923 whole entry): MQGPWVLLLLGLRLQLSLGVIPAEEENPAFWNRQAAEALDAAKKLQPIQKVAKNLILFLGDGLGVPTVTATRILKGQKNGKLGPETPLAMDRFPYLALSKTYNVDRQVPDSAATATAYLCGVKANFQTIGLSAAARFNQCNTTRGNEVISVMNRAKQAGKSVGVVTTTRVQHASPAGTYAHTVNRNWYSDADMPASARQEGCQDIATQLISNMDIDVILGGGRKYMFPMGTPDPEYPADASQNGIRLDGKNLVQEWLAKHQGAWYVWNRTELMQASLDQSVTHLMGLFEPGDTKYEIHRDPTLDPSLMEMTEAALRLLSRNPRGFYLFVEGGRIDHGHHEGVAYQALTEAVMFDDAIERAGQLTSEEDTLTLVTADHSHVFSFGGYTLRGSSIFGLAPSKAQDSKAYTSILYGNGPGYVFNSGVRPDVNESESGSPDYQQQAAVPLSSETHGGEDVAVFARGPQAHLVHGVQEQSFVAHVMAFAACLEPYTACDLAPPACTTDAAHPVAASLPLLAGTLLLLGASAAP
Chain of Caspase-9 (P55211 1-315 limits assumed): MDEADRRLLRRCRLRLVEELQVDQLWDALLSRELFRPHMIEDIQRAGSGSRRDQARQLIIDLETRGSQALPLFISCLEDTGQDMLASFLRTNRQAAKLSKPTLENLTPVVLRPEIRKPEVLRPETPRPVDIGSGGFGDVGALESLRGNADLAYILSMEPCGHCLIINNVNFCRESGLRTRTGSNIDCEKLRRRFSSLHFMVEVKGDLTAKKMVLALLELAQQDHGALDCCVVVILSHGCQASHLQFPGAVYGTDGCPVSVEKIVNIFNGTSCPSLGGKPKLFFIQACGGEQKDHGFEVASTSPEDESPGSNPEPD
Chain of Caspase-9 (P55211 331-416 limits assumed): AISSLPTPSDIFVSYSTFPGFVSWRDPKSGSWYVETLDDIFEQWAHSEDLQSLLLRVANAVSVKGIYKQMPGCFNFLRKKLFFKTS
Chain of Caspase-6 (P55212 24-179 limits assumed): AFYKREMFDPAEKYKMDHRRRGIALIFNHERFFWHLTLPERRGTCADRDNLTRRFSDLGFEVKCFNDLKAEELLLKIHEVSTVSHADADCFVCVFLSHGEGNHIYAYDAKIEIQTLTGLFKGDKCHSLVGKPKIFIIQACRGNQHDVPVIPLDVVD
Chain of Caspase-6 (P55212 194-293 limits assumed): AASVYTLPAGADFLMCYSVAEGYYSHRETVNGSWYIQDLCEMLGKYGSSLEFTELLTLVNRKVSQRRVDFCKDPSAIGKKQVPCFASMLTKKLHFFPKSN
Chain of Kallikrein-7 (P49862 whole entry): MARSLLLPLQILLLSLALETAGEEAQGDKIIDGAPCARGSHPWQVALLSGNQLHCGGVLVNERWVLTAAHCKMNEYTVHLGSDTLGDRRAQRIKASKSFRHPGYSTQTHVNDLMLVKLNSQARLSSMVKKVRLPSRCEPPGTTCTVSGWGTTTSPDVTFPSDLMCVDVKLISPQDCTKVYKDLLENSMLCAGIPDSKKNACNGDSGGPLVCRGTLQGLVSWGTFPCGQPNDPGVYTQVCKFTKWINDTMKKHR
Chain of Caspase-8 (Q14790 217-374 limits assumed): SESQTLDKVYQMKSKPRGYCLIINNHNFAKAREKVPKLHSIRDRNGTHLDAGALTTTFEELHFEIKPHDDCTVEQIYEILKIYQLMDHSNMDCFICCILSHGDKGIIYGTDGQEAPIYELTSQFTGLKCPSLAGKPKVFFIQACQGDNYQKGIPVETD
Chain of Caspase-8 (Q14790 385-479 limits assumed): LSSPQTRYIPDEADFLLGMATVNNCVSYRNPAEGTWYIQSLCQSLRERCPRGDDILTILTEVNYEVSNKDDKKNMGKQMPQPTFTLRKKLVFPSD
Chain of Paired box protein Pax-8 (Q06710 whole entry): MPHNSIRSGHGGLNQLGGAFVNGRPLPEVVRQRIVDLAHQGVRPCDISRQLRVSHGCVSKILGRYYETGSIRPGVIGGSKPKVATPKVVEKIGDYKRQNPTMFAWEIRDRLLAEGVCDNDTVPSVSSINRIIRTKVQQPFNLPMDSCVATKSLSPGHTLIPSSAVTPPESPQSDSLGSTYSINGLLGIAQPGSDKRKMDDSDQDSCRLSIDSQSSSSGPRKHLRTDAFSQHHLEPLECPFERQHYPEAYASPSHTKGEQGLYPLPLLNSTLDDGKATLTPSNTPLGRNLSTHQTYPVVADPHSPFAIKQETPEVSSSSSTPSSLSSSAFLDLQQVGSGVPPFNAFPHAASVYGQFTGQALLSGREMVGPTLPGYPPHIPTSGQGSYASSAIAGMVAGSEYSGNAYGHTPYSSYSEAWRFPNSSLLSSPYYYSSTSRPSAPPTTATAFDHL
Chain of Caspase-7 (P55210 24-198 limits assumed): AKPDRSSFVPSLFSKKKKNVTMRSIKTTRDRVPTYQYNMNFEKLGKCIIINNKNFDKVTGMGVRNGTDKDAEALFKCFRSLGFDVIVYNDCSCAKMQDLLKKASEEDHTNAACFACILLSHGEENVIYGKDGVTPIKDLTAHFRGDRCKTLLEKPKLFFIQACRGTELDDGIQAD
Chain of Caspase-7 (P55210 207-303 limits assumed): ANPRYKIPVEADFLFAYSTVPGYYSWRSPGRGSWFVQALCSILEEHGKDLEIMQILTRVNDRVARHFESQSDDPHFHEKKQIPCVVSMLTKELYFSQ
Chain of NAD-dependent protein deacylase sirtuin-5, mitochondrial (Q9NXA8 whole entry): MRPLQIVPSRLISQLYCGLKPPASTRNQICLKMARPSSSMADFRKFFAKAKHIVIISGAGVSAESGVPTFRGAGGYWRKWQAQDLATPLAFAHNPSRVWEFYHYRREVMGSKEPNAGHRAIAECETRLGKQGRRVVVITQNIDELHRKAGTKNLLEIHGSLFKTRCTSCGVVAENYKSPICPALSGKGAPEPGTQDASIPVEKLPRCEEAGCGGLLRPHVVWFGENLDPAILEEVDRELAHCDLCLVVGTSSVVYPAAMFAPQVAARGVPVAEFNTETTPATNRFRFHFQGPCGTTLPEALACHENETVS

SMILES: O=C(Nc1cccc(O)c1)c1c(O)nc2ccccc2c1O
EC50 [1]: > 67.5 µM (inactive)
IC50 [2]: > 67.5 µM (inactive)

SMILES: COc1cc(S(=O)(=O)NC2CCCCC2)c(C)cc1C
IC50 [6]: > 83.3 µM (inactive)
IC50 [7]: > 109 µM (inactive)

SMILES: Oc1ccc(-c2[nH]nc(C(F)(F)F)c2-c2ccccc2)c(O)c1
AC50 [8]: 3.81 µM (active)
IC50 [9]: 0.547 µM (active)
AC50 [10]: 2.63 µM (active)
IC50 [11]: 0.666 µM (active)
AC50 [12]: 53.2 µM (active)
AC50 [13]: 0.283 µM (active)
AC50 [14]: 0.473 µM (active)

SMILES: COc1ccc(-c2nnn(CC(=O)N(Cc3ccco3)C(C(=O)NCC3CCCO3)c3ccco3)n2)cc1 (stereo not drawn)
AC50 [17]: > 30 µM (inactive)

SMILES: Cn1c(=O)c2c(-c3ccccc3)n(-c3ccc(N)cc3)cc2n(C)c1=O
IC50 [18]: > 66 µM (inactive)
AC50 [19]: 8.62 µM (active)
IC50 [20]: 38.4 µM (inactive)
IC50 [21]: > 128 µM (inactive)
AC50 [22]: 19.2 µM (active)
AC50 [23]: > 70 µM (inactive)
AC50 [24]: 69.8 µM (active)
AC50 [25]: 1.07 µM (active)
IC50 [26]: 73.6 µM (inactive)

SMILES: COc1ccc(-c2ccc([C@@H]3[C@@H]4CN(Cc5cc(OC)cc(OC)c5)C[C@H]3N4)cc2)cc1
AC50 [27]: 10.5 µM (active)
AC50 [28]: 23.8 µM (active)
AC50 [29]: 10.1 µM (active)
AC50 [30]: 2.24 µM (active)
AC50 [31]: 6.38 µM (active)
AC50 [32]: 21.5 µM (active)
AC50 [33]: 11.8 µM (active)

The remaining lines, values ahead:

IC50 [3]: > 122 µM (inactive)
IC50 [4]: > 20 µM (inactive)
EC50 [5]: 14.2 µM (active)
SMILES: COc1ccc(NC(S)=NNC(=O)c2nnn(-c3ccccc3)c2C)cc1

EC50 [15]: 5.48 µM (active)
SMILES: Cc1nc2ccc(NC(=O)N3CCCCC3)cc2nc1C

EC50 [16]: > 167 µM (inactive)
SMILES: Cc1nn(C)c(C(=O)N2CCc3ccccc32)c1Br
